Measured values as given in patent US20230255943A1, “MMP-9 AND MMP-12 INHIBITION FOR TREATING SPINAL CORD INJURY OR RELATED INJURY TO NEUROLOGICAL TISSUE” (The University of Birmingham, priority 2020, published 2023).

Test system: SCI-induced oedema
Experiment: Example 3: spinal cord water content with aquaporin-4 relocalisation inhibitors
Settings: in vivo
Description: The lesion site+3 mm either side for mice and the lesion site+5 mm either side for the rat DC model were dissected out and the water content of the spinal cord (as a measure of oedema) was determined at 3 days after DC and CC SCI, as described previously (S. Li, C. H. Tator, Effects of MK801 on evoked potentials, spinal cord blood flow and cord edema in acute spinal cord injury in rats. Spinal Cord 37, 820-832 (1999)). Spinal cords containing the lesion site were weighed on aluminium foil, dried at 105° C. for 24 hr, and re-weighed. The percent water content was calculated as: water content (%)=[(wet weight-dry weight)/wet weight]×100%.
Using similar techniques to those described in Example 1, the water content in the spinal cord as a measure of injury-induced oedema was determined for various agents and aquaporin-4 inhibitors, namely TFP, PKAi, PKCi and TGN-020—see FIG. 21.

Compound	SCI-induced oedema, water content (FIG. 21)
CN1CCN(CCCN2c3ccccc3Sc3ccc(C(F)(F)F)cc32)CC1 [TFP, trifluoperazine]	suppress SCI-induced oedema
O=C(Nc1nncs1)c1cccnc1 [TGN-020, N-1,3,4-Thiadiazol-2-yl-3-pyridinecarboxamide]	suppress SCI-induced oedema
